# Measurements from patent US20110319384A1, “Pharmaceutical Compositions” (priority 2005, published 2011).
# Key:
# [1] = tested on: patients with GAD; settings: cited from earlier work
# [2] = tested on: patients resistant to anti-depressant treatment; settings: within 4 weeks; adjunct to anti-depressant therapy; cited from earlier work
# [3] = tested on: patients with treatment resistant major depression; test: Example 24: augmentation of antidepressant therapy, quetiapine versus lithium, 56 days
# Protocol: The study compared tolerability and efficacy. […] Lithium was initiated at 600 mg/day, and maintained over Week 1 and 2 and subsequently adjusted to attain a level of 0.8-1.2 mmol/L. Lithium levels were taken weekly.
# A total of 20 patients were randomized to 1 of the 2 treatment groups. The study population included men and women aged 18-65 years, with a diagnosis of major depression according to DSM-IV, Hamilton Depression Rating Scale (HAM-D)≧20 and a Clinical Global […] (CGI) score ≧4.
# Patients were evaluated at baseline and then on days 7, 14, 28, 42, and 56 using the HAM-D, Montgomery-Asberg […] (MADRS), SAS, and Widlocher Psychomotor Retardation Scale.
# [4] = tested on: patients with GAD; settings: cited from earlier work; remark: listed apart in the source
# [5] = tested on: patients with PTSD
# Source text: To be included, patients had to be diagnosed with PTSD according to DSM-IV criteria. Patients with comorbid psychotic disorders or substance abuse problems were excluded. […] The dose was split between morning and night time so that the majority of the dose was taken at bedtime.
# The primary efficacy endpoints were: (1) change from baseline to endpoint in the Clinician Administered PTSD Scale (CAPS) total score; and (2) the percentage of patients meeting PTSD diagnostic criteria at endpoint. […] Adverse events (AEs) and patient adherence were also evaluated. Forty-seven patients were included in each treatment group.
# [6] = add-on to antidepressant, mean doses quetiapine 430 mg/day, lithium 825 mg/day
compound,measurement,setting,value
"COc1ccc(C(CN(C)C)C2(O)CCCCC2)cc1 (stereo not shown) [Venlafaxine XR, venlafaxine]",change in HAM-A total score compared to placebo,"[1]; at 6 months, another long-term study",5.4
same,difference in HAM-A total score,"[1]; long-term study, s.d.=7.5",4.18 points
[Li] [lithium],patients who respond,[2],~50%
same,Widlocher Psychomotor Retardation Scale mean baseline score,[3]; add-on to antidepressant,about 22
same,Widlocher Psychomotor Retardation Scale mean score after treatment,[3]; add-on to antidepressant,about 15
same,mean MADRS score after Day 7 up to Day 56 (end value),[3]; add-on to antidepressant,about 22
same,mean HAM-D score at Day 56,[3]; [6],about 15
same,"mean HAM-D score, start value of 'From Day 7 to 56'",[3]; [6],about 28
same,patients in remission (HAM-D),[3]; after 56 days,40%
same,patients who responded (MADRS),[3]; after 56 days,50%
same,patients who responded to treatment (HAM-D),[3]; after 56 days,50%
same,patients who achieved remission (MADRS),[3]; at 56 days,30%
Fc1ccc([C@@H]2CCNC[C@H]2COc2ccc3c(c2)OCO3)cc1 [paroxetine],percent remission,[4]; placebo 30%,70%
same,relapse,"[4]; relapse = increase in CGI-S score of at least 2 points to >=4, or withdrawal from lack of efficacy, placebo 39.9%",10.9%
"CN[C@H]1CC[C@@H](c2ccc(Cl)c(Cl)c2)c2ccccc21 [sertraline+placebo, sertraline]",mean improvement (decrease) from baseline to endpoint in CAPS total score,[5]; 8 weeks,about 53
same,patients still meeting PTSD diagnostic criteria,"[5]; after 8 weeks of treatment, disparity not seen with LOCF analysis",37%
same,CGI-I scores,[5]; in vivo,significant increase
same,"mean HAM-D scores and CGI-S scores, baseline to endpoint",[5]; in vivo,decreased significantly
same,patients that experienced at least one AE,[5]; of 59 in the study,31 patients
